From patent publication US20090203708A1, “NOVEL SUBSTITUTED-1-H-QUINAZOLINE-2,4-DIONE DERIVATIVES, PREPARATION METHOD THEREOF AND PHARMACEUTICAL COMPOSITION CONTAINING THE SAME” (Korea Research Institute of Chemical Technology, priority 2006, published 2009)

Experiments:
[1] = in vivo; cited from earlier work
[2] = test system: retention of a previously learned task; conditions: rats, literature; cited from earlier work
[3] = test system: rat maximal electroseizure threshold; conditions: oral administration, literature; cited from earlier work
[4] = biological target: human serotonin 5-HT6 receptor (Homo sapiens, UniProt P50406); assay: [3H]LSD binding assay for cloned 5-HT6 receptors
human serotonin 5-HT6 receptor, sequence (P50406 whole entry): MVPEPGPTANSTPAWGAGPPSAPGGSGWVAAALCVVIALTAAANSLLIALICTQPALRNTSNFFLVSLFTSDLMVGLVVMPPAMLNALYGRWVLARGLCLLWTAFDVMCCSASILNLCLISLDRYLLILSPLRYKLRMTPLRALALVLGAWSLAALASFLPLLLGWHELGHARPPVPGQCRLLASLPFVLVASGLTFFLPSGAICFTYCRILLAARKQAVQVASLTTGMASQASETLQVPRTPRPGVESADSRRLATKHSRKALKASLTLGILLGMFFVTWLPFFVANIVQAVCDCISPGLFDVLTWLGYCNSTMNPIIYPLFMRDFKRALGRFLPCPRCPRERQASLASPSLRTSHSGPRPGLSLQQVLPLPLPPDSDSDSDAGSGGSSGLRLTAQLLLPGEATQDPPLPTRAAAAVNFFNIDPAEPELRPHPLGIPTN

[5] = biological target: 5-HT2a (human recombinant receptor, CHO-K1) (Homo sapiens, UniProt P28223); assay: Radioligand binding assay, 5-HT2a
5-HT2a (human recombinant receptor, CHO-K1), sequence (P28223 whole entry): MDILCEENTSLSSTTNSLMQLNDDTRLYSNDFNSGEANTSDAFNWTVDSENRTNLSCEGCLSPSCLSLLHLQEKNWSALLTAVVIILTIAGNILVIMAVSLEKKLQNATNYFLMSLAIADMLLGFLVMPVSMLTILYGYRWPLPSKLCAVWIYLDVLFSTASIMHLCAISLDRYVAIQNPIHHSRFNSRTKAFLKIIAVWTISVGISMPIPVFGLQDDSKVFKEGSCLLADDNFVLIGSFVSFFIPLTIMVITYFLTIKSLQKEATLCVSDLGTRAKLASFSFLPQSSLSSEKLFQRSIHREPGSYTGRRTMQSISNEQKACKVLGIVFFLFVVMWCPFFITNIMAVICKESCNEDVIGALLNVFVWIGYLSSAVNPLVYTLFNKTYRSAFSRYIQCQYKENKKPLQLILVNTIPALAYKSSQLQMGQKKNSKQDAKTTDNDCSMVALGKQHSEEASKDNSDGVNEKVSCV

[6] = biological target: T1, 5-HT1a (human recombinant receptor, CHO-K1) (Homo sapiens, UniProt P08908); assay: Radioligand binding assay, 5-HT1a
T1 sequence (P08908 1-422): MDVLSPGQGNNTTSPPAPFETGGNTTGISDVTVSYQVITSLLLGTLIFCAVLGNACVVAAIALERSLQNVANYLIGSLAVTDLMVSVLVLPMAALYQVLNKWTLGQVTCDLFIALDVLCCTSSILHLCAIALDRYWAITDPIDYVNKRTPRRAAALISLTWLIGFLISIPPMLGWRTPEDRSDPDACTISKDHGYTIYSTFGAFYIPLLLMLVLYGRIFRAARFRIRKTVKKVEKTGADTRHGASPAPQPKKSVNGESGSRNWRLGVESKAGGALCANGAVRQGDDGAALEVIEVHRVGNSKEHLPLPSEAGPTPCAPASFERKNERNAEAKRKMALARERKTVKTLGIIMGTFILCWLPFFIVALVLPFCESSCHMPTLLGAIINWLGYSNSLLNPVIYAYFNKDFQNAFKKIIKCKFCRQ

[7] = biological target: T2, 5-HT2c (human recombinant receptor, CHO-K1) (Homo sapiens, UniProt P28335); assay: Radioligand binding assay, 5-HT2c
T2 sequence (P28335 33-458): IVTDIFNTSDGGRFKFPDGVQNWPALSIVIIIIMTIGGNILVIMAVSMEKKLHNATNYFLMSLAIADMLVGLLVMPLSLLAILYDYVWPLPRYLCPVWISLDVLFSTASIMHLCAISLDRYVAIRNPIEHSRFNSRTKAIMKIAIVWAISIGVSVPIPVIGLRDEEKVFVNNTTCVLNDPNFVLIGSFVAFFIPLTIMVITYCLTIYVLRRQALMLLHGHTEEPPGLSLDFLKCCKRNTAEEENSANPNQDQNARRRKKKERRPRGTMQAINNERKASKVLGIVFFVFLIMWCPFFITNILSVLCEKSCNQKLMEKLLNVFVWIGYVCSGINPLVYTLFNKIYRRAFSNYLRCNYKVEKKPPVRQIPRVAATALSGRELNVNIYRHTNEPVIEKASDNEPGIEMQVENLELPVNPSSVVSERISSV

D4 (hD4.2 receptor) = biological target: T3, D4 (hD4.2 receptor) (Homo sapiens, UniProt P21917, DEL265-296); assay: Radioligand binding assay, dopamine D4; conditions: [3H] YM-09151-2 0.06 nM; read-out: Binding affinity IC50 D4
T3 construct: purchased BioSignal Packard Inc., Montreal, Canada
T3 sequence (P21917 with tags, fused parts or gaps DEL265-296): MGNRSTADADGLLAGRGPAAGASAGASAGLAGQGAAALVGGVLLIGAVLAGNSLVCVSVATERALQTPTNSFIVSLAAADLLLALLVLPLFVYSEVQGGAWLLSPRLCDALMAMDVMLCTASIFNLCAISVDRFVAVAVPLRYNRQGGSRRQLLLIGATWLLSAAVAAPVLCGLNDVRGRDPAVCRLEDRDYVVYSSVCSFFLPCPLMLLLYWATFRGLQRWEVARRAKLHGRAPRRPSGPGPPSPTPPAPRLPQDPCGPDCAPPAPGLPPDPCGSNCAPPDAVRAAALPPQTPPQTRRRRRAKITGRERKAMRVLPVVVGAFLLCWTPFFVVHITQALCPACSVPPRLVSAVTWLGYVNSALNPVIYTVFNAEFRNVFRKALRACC
Method: (§1) Radioligand binding assays for dopamine receptor family (D1, D2 and D3) were performed according to the protocols provided by the manufacturer of receptor membranes (BioSignal Packard Inc., Montreal, Canada). The radioligands used were [^3H] spiperone (for hD2L and hD3 receptors, 1 nM) and [^3H] YM-09151-2 (hD4.2 receptor, 0.06 nM). Briefly, the buffer used in the D1, D2 and D3 receptor binding assay was 50 mM Tris-HCl (pH 7.4), containing 10 mM MgCl2 and 1 mM EDTA, or 50 mM Tris-HCl (pH 7.4), containing 5 mM MgCl2, 5 mM EDTA, 5 mM KCl, 1.5 mM CaCl2 and 120 mM NaCl. For [^3H] YM-09151-2 receptor binding assays, 50 mM Tris-HCl (pH 7.4) containing 5 mM MgCl2, 5 mM EDTA, 5 mM KCl and 1.5 mM CaCl2, was used as a buffer. Nonspecific binding was determined with haloperidol (10 μM) for D2 and D3 and clozapine (10 μM) for D4 receptors.
(§2) Competition binding studies were carried out with 7-8 concentrations of the test compound run in duplicate tubes, and isotherms from three assays were calculated by computerized nonlinear regression analysis (GraphPad Prism Program, San Diego, […]) to yield median inhibitory concentration (IC50) values.

D2 (hD2L receptor) = biological target: T4, D2 (hD2L receptor) (Homo sapiens, UniProt P14416); assay: Radioligand binding assay, dopamine D2; conditions: [3H] spiperone 1 nM; read-out: Binding affinity IC50 D2
T4 construct: purchased BioSignal Packard Inc., Montreal, Canada
T4 sequence (P14416 whole entry): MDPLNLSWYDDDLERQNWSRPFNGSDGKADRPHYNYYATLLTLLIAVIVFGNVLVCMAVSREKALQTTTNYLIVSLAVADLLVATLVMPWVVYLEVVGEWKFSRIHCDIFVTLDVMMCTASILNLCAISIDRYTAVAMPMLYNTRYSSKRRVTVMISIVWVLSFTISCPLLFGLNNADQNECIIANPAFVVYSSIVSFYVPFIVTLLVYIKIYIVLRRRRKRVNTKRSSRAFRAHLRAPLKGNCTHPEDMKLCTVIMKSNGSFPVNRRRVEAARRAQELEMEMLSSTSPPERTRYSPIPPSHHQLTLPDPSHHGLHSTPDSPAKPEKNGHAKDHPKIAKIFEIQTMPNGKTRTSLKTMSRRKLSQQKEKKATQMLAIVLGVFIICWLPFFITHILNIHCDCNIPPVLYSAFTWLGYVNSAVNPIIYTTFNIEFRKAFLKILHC
Method: as §1, §2

[8] = biological target: 5-HT7 (human recombinant receptor, CHO-K1) (Homo sapiens, UniProt P34969); assay: Radioligand binding assay, 5-HT7
5-HT7 (human recombinant receptor, CHO-K1), sequence (P34969 whole entry): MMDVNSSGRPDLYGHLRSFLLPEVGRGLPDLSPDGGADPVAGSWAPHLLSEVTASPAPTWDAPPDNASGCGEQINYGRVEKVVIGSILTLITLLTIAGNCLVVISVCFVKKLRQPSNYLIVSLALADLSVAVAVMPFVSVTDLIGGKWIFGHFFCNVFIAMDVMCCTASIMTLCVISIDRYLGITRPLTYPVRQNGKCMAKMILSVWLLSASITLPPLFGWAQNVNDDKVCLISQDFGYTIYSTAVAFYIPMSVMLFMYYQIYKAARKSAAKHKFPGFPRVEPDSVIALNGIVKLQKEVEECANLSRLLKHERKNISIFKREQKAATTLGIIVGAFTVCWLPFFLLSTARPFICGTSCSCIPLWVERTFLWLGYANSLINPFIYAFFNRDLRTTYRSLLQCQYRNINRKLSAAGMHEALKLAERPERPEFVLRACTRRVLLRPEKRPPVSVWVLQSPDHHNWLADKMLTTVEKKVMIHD

D3 (hD3 receptor) = D3 (hD3 receptor) (Homo sapiens, UniProt P35462); assay: Radioligand binding assay, dopamine D3
D3 (hD3 receptor), sequence (P35462 whole entry): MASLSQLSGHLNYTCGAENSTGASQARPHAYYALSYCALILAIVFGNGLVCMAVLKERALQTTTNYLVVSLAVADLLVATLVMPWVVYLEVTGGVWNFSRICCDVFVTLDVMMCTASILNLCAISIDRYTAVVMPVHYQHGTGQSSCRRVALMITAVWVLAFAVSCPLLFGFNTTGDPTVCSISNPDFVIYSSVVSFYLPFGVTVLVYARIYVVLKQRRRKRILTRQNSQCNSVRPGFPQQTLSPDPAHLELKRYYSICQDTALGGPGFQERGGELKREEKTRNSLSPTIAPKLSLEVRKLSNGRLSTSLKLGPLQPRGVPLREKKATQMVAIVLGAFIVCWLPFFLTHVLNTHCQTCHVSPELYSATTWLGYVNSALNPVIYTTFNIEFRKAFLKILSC

D1 receptor = D1 receptor (Homo sapiens, UniProt P21728); assay: Radioligand binding assay, dopamine D1
D1 receptor, sequence (P21728 whole entry): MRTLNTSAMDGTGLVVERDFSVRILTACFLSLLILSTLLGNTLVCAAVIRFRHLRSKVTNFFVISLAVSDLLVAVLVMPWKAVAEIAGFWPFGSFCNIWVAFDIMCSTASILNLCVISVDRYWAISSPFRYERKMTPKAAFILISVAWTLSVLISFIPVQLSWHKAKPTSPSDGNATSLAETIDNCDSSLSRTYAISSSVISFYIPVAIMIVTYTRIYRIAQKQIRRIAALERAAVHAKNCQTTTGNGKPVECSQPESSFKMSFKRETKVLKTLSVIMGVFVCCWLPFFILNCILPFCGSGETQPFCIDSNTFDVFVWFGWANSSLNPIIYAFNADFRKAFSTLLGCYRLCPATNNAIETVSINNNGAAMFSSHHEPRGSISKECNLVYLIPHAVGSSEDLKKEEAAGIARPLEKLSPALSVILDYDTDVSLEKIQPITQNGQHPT

[9] = test system: apomorphine-induced PPI disruption; assay: Apomorphine-induced PPI disruption in rat; conditions: for effect of compound alone on PPI versus vehicle control: rat, 2.5, 5, 10 and 20 mg/kg i.p. alone; for mean startle amplitude versus apomorphine positive control / effect of pretreatment on apomorphine-induced PPI disruption: rat; for mean startle amplitude versus apomorphine positive control: given 30 min before apomorphine; for effect of pretreatment on apomorphine-induced PPI disruption: i.p. 30 min before apomorphine (2 mg/kg, i.p.), 2.5, 5, 10 and 20 mg/kg
rotarod deficit = assay: Rotarod deficit in mice; type: in vivo; conditions: for Rotarod Deficit TD50: mice, i.p. 30 min before testing; for rotarod dysfunction: mouse, in vivo, ip, 150 mg/kg, 120 min
Method: In order to examine the effects of the compounds of the present invention on the central nervous system and behavior, a rotarod test was performed as follows.
Mice were placed on a plastic rod having a node 1 inch in diameter (Ugo-Basile, Milano, Italy), followed by rotating the rod at a speed of 6 rpm. 30, 60, 90 and 120 min after the administration of test compounds, the mice that fell from the rotating rod within 1 min were counted to determine rotarod deficits (%) (Dunham et al., 1957).

lethality = assay: Lethality (LD50) in mice; type: in vivo; conditions: i.p.
[10] = biological target: T5, HeLa cells transfected with human 5-HT6 receptor (Homo sapiens, UniProt P50406); assay: Serotonin-stimulated cAMP accumulation in HeLa cells (EIA); type: cell-based
T5 construct: expressed in transfected cells; host or cells: HeLa
T5 sequence (P50406 whole entry): as the sequence (P50406 whole entry) above

5-HT6 receptors = 5-HT6 receptors (Homo sapiens, UniProt P50406); conditions: human 5-HT6 receptors, literature; cited from earlier work
5-HT6 receptors, sequence (P50406 whole entry): as above

Row | Compound | IC50 [4] | IC50 [5] | melting point | IC50 [6] | IC50 [7] | IC50 (D4 (hD4.2 receptor)) | IC50 (D2 (hD2L receptor)) | IC50 [8] | IC50 (D3 (hD3 receptor)) | IC50 (D1 receptor) | further results
1 | COc1ccc(S(=O)(=O)Nc2cc(Br)cc(F)c2Br)cc1N1CCNCC1 [SB-357134] |  |  |  |  |  |  |  |  |  |  | bioavailability (in words) [1]: excellent oral bioavailability; clearance (in words) [1]: low clearance rate; retention of a previously learned task in water maze [2]: significant improvement in retention of a previously learned task; seizure threshold (rat maximal electroseizure threshold) [3]: potent and dose-dependent increase in seizure threshold
2 | CN1CCN(c2cc(Cl)cc3c2c(=O)n(CCc2ccccc2)c(=O)n3Cc2ccccc2)CC1 [Example 42, 1-benzyl-7-chloro-5-(4-methyl-piperazin-1-yl)-3-phenethyl-1H-quinazoline-2,4-dione] | 0.0005 µM | 0.244 µM | 136 to 138 °C | 1.3 µM | 0.43 µM | > 10 µM | 2.5 µM | 7.03 µM | 0.638 µM | 3.45 µM | 
3 | O=c1c2c(N3CCNCC3)cc(Cl)cc2n(Cc2ccccc2)c(=O)n1CCCc1ccccc1 [Example 71, 1-benzyl-7-chloro-3-(3-phenyl-propyl)-5-piperazin-1-yl-1H-quinazoline-2,4-dione] | 0.0018 µM | 0.733 µM | 62 to 68 °C | 0.891 µM | 1.1 µM | > 10 µM | 2.72 µM | 3.05 µM | 1.2 µM | 2.32 µM | 
4 | O=c1c2c(N3CCNCC3)cc(Cl)cc2n(Cc2ccccc2)c(=O)n1Cc1ccccc1Br [Example 60, 1-benzyl-3-(2-bromo-benzyl)-7-chloro-5-piperazin-1-yl-1H-quinazoline-2,4-dione] | 0.0039 µM |  | 94 to 97 °C |  |  |  |  |  |  |  | effect of compound alone on PPI versus vehicle control [9]: no significant effects
5 | C[C@H](c1ccccc1)n1c(=O)c2c(N3CCN(C)CC3)cc(Cl)cc2n(Cc2ccccc2)c1=O [Example 40, 1-benzyl-7-chloro-5-(4-methyl-piperazin-1yl)-3-[(R)-1-phenyl-ethyl]-1H-quinazoline-2,4-dione] | 0.0016 µM | 0.266 µM |  | 4.35 µM | 0.477 µM | > 10 µM | > 10 µM | 7.42 µM | 0.983 µM | 2.71 µM | Rotarod Deficit TD50 (rotarod deficit): 139 mg/kg, ip; rotarod dysfunction (rotarod deficit): 75%; Lethal Degrees LD50 (lethality): >300 mg/kg, ip; effect of compound alone on PPI versus vehicle control [9]: no significant effects; mean startle amplitude versus apomorphine positive control [9]: did not induce significant difference in mean startle amplitude; effect of pretreatment on apomorphine-induced PPI disruption [9]: found to inhibit apomorphine (2 mg/kg, i.p.)-induced PPI disruption; cytotoxicity [10]: did not show any cytotoxicity at all; effect on serotonin-stimulated cAMP accumulation (in words) ([10]; HeLa cells, FIG. 1): inhibited serotonin-stimulated cAMP accumulation in a dose-dependent manner; inhibition at 0.001 µM ([10]; HeLa, read-out: inhibition of cAMP increase induced by 0.3 μM serotonin, compound 0.001 μM): 0%; inhibition at 0.01 µM ([10]; HeLa, read-out: inhibition of cAMP increase induced by 0.3 μM serotonin, compound 0.01 μM): 35%; inhibition at 0.1 µM ([10]; HeLa, read-out: inhibition of cAMP increase induced by 0.3 μM serotonin, compound 0.1 μM): 95%; inhibition at 1 µM ([10]; HeLa, read-out: inhibition of cAMP increase induced by 0.3 μM serotonin, compound 1 μM): 100%; inhibition at 10 µM ([10]; HeLa, read-out: inhibition of cAMP increase induced by 0.3 μM serotonin, compound 10 μM): 100%
6 | CN1CCN(c2cc(Cl)cc3c2c(=O)n(CCCc2ccccc2)c(=O)n3Cc2ccccc2)CC1 [Example 43, 1-benzyl-7-chloro-5-(4-methyl-piperazin-1-yl)-3-(3-phenyl-propyl)-1H-quinazoline-2,4-dione] | 0.0027 µM | 0.892 µM | 55 to 63 °C | 2.64 µM | 1.42 µM | > 10 µM | 5.67 µM | 7.76 µM | 1.75 µM | 0.961 µM | 
7 | C[C@H](c1ccccc1)n1c(=O)c2c(N3CCNCC3)cc(Cl)cc2n(Cc2ccccc2)c1=O [Example 68, 1-benzyl-7-chloro-3-[(R)-1-phenyl-ethyl]-5-piperazin-1yl-1H-quinazoline-2,4-dione] | 0.0068 µM |  |  |  |  |  |  |  |  |  | Rotarod Deficit TD50 (rotarod deficit): 122 mg/kg, ip; rotarod dysfunction (rotarod deficit): 100%; Lethal Degrees LD50 (lethality): 152 mg/kg, ip; mean startle amplitude versus apomorphine positive control [9]: did not induce significant difference in mean startle amplitude; effect of pretreatment on apomorphine-induced PPI disruption [9]: found to inhibit apomorphine (2 mg/kg, i.p.)-induced PPI disruption
8 | COc1ccc2c(c1)c(CCN(C)C)cn2S(=O)(=O)c1ccccc1 [MS-245] |  |  |  |  |  |  |  |  |  |  | pA2, antagonist (5-HT6 receptors): 8.88
9 | CN1CCN(c2cc(Cl)cc3c2c(=O)n(Cc2ccccc2)c(=O)n3Cc2ccccc2)CC1 [Example 10, 1,3-dibenzyl-7-chloro-5-(4-methyl-piperazin-1yl)-1H-quinazoline-2,4-dione] | 0.0024 µM | 1.69 µM | 113 to 116 °C | 4.59 µM | 4.76 µM | > 10 µM | 4.35 µM | 6.78 µM | 1.55 µM | 5.56 µM | 
